Data taken from paper PMC10035947, “Development of novel anilinoquinazoline-based carboxylic acids as non-classical carbonic anhydrase IX and XII inhibitors” (Journal of Enzyme Inhibition and Medicinal Chemistry, 2023).
Where two headings read alike, the source gives them in different places.

How the values were obtained:
Test in all cases: NCI SRB assay
Assay type in all cases: cell-based, human
SNB-75 = conditions: for CC50: read-out: LC50 (the source's name)
T-47D = conditions: for GI50 / TGI / CC50: 5-dose; for CC50: read-out: LC50 (the source's name)
BT-549 = tested on: BT-549
OVCAR-4 = conditions: for CC50: read-out: LC50 (the source's name)
SK-OV-3 = conditions: for CC50: read-out: LC50 (the source's name)
NCI-H460 = tested on: NCI-H460
MOLT-4 = conditions: for CC50: read-out: LC50 (the source's name)
M14 = conditions: for CC50: read-out: LC50 (the source's name)
CCRF-CEM = conditions: for GI50 / TGI / CC50: 5-dose; for CC50: read-out: LC50 (the source's name)
UACC-62 = tested on: UACC-62
U251 = conditions: for CC50: read-out: LC50 (the source's name)
A549/ATCC = tested on: A549/ATCC
ACHN = conditions: for GI50 / TGI / CC50: 5-dose; for CC50: read-out: LC50 (the source's name)
[1] = Homo sapiens, OVCAR-4, OVCAR-4, 5-dose
[2] = Homo sapiens, U-251, U251, 5-dose

Structure (SMILES): Cc1ccc(-c2nc(Nc3ccccc3C(=O)O)c3ccccc3n2)cc1 [6b, 2-((2-(p-Tolyl)quinazolin-4-yl)amino)benzoic acid]
- CC50 (SNB-75; Homo sapiens, SNB-75, SNB-75, 5-dose): > 100 µM
- GI% (SNB-75; SNB-75, 10 μM): 84%
- Growth Percent (SNB-75; SNB-75, 1.00E-5 Molar): 15.71%
- GI50 (SNB-75; SNB-75, 5-dose): 1.4 µM
- TGI (SNB-75; SNB-75, 5-dose): 80.3 µM
- TGI (SNB-75; SNB-75, 5-dose, listed as D - 835857): 8.03E-5 Molar
- CC50 (SNB-75; SNB-75, 5-dose): < 100 µM
- GI% (T-47D; 10 μM): 89%
- Growth Percent (T-47D; 1.00E-5 Molar): 10.72%
- GI50 (T-47D): 6.3 µM
- TGI (T-47D): 70.0 µM
- TGI (T-47D; listed as D - 835857): 7.00E-5 Molar
- CC50 (T-47D): < 100 µM
- GI50 (T-47D; Homo sapiens, T47D): 6.29 µM
- CC50 (T-47D; Homo sapiens, T47D): > 100 µM
- GI% (BT-549; BT-549, 10 μM): 123%
- Growth Percent (BT-549; BT-549, 1.00E-5 Molar): -23.53%
- TGI (BT-549; BT-549, 5-dose): 33.8 µM
- TGI (BT-549; BT-549, 5-dose, listed as D - 835857): 3.38E-5 Molar
- GI50 (BT-549; Homo sapiens, BT-549, 5-dose): 14.6 µM
- CC50 (BT-549; Homo sapiens, BT-549, 5-dose, read-out: LC50 (the source's name)): 78.1 µM
- GI50 (OVCAR-4; [1]): 8.77 µM
- CC50 (OVCAR-4; [1]): > 100 µM
- GI% (OVCAR-4; OVCAR-4, 10 μM): 78%
- Growth Percent (OVCAR-4; OVCAR-4, 1.00E-5 Molar): 21.83%
- GI50 (OVCAR-4; OVCAR-4, 5-dose): 8.8 µM
- TGI (OVCAR-4; OVCAR-4, 5-dose): <100 µM
- TGI (OVCAR-4; OVCAR-4, 5-dose, listed as D - 835857): > 1.00E-4 Molar
- CC50 (OVCAR-4; OVCAR-4, 5-dose): < 100 µM
- CC50 (SK-OV-3; Homo sapiens, SK-OV-3, SK-OV-3, 5-dose): > 100 µM
- GI50 (SK-OV-3; Homo sapiens, SK-OV-3, 5-dose): 11.9 µM
- GI% (SK-OV-3; SK-OV-3, 10 μM): 69%
- Growth Percent (SK-OV-3; SK-OV-3, 1.00E-5 Molar): 31.32%
- TGI (SK-OV-3; SK-OV-3, 5-dose): 55.3 µM
- TGI (SK-OV-3; SK-OV-3, 5-dose, listed as D - 835857): 5.53E-5 Molar
- CC50 (SK-OV-3; SK-OV-3, 5-dose): < 100 µM
- GI50 (NCI-H460; Homo sapiens, NCI-H460, NCI-H460, 5-dose): 8.52 µM
- LC50 (concentration giving 50% net cell kill) (NCI-H460; Homo sapiens, NCI-H460, 5-dose): 84 µM
- GI% (NCI-H460; NCI-H460, 10 μM): 109%
- Growth Percent (NCI-H460; NCI-H460, 1.00E-5 Molar): -9.44%
- GI50 (NCI-H460; NCI-H460, 5-dose): 8.5 µM
- TGI (NCI-H460; NCI-H460, 5-dose): 27.7 µM
- TGI (NCI-H460; NCI-H460, 5-dose, listed as D - 835857): 2.77E-5 Molar
- CC50 (MOLT-4; Homo sapiens, MOLT-4, MOLT-4, 5-dose): > 100 µM
- GI50 (MOLT-4; Homo sapiens, MOLT-4, 5-dose): 11.7 µM
- GI% (MOLT-4; MOLT-4, 10 μM): 89%
- Growth Percent (MOLT-4; MOLT-4, 1.00E-5 Molar): 10.91%
- TGI (MOLT-4; MOLT-4, 5-dose): <100 µM
- TGI (MOLT-4; MOLT-4, 5-dose, listed as D - 835857): > 1.00E-4 Molar
- CC50 (MOLT-4; MOLT-4, 5-dose): < 100 µM
- CC50 (M14; Homo sapiens, M14, M14, 5-dose): > 100 µM
- GI50 (M14; Homo sapiens, M14, 5-dose): 15.5 µM
- GI% (M14; M14, 10 μM): 87%
- Growth Percent (M14; M14, 1.00E-5 Molar): 12.58%
- TGI (M14; M14, 5-dose): 77.4 µM
- TGI (M14; M14, 5-dose, listed as D - 835857): 7.74E-5 Molar
- CC50 (M14; M14, 5-dose): < 100 µM
- GI% (CCRF-CEM; 10 μM): 87%
- Growth Percent (CCRF-CEM; 1.00E-5 Molar): 12.80%
- GI50 (CCRF-CEM): 5.7 µM
- TGI (CCRF-CEM): <100 µM
- TGI (CCRF-CEM; listed as D - 835857): > 1.00E-4 Molar
- CC50 (CCRF-CEM): < 100 µM
- GI50 (CCRF-CEM; Homo sapiens): 5.72 µM
- CC50 (CCRF-CEM; Homo sapiens): > 100 µM
- GI50 (UACC-62; Homo sapiens, UACC-62, 5-dose): 10.2 µM
- CC50 (UACC-62; Homo sapiens, UACC-62, 5-dose, read-out: LC50 (the source's name)): 71.6 µM
- GI% (UACC-62; UACC-62, 10 μM): 89%
- Growth Percent (UACC-62; UACC-62, 1.00E-5 Molar): 11.04%
- TGI (UACC-62; UACC-62, 5-dose): 27.0 µM
- TGI (UACC-62; UACC-62, 5-dose, listed as D - 835857): 2.70E-5 Molar
- GI50 (U251; [2]): 5.58 µM
- CC50 (U251; [2]): > 100 µM
- GI% (U251; U251, 10 μM): 82%
- Growth Percent (U251; U251, 1.00E-5 Molar): 18.45%
- GI50 (U251; U251, 5-dose): 5.6 µM
- TGI (U251; U251, 5-dose): 35.0 µM
- TGI (U251; U251, 5-dose, listed as D - 835857): 3.50E-5 Molar
- CC50 (U251; U251, 5-dose): < 100 µM
- GI% (A549/ATCC; A549/ATCC, 10 μM): 70%
- Growth Percent (A549/ATCC; A549/ATCC, 1.00E-5 Molar): 30.48%
- LC50 (A549/ATCC; A549/ATCC, 5-dose): < 100 µM
- TGI (A549/ATCC; A549/ATCC, 5-dose): <100 µM
- TGI (A549/ATCC; A549/ATCC, 5-dose, listed as D - 835857): > 1.00E-4 Molar
- LC50 (A549/ATCC; Homo sapiens, A549, A549/ATCC, 5-dose): > 100 µM
- GI50 (A549/ATCC; Homo sapiens, A549/ATCC, 5-dose): 8.31 µM
- GI% (ACHN; 10 μM): 92%
- Growth Percent (ACHN; 1.00E-5 Molar): 7.89%
- GI50 (ACHN): 6.4 µM
- TGI (ACHN): 91.1 µM
- TGI (ACHN; listed as D - 835857): 9.11E-5 Molar
- CC50 (ACHN): < 100 µM
- GI50 (ACHN; Homo sapiens): 6.44 µM
- CC50 (ACHN; Homo sapiens): > 100 µM
